Results on 1 compound are retold here after US11149062B2, “HDAC inhibitors and methods of treatment using the same” (UWM Research Foundation, Inc., priority 2015, dated 2021).

The nature of data set [1]: Maximum tolerated dose (MTD). The note with it: BALB/c, mouse, in vivo, ip, MTD (toxicity in healthy BALB/c mice), single IP dose, observed 2 weeks. The text has this: BALB/c mice were purchased from The Jackson Laboratory (Bar Harbor, Me.) and used between 7 and 10 weeks of age. Mice were housed in a conventional animal vivarium and were given free access to food and water. All studies and procedures were approved by the Animal Care and Use Committee of the University of Wisconsin, Milwaukee.
Each animal was initially weighed using a digital scale and then intraperitoneally (IP) injected with the compounds (listed in Table 2). A single mouse was given a single IP dose of 200 mg/kg, body weight, a second mouse received a dose of 100 mg/kg and a third mouse received a single dose of 50 mg/kg. The mice were observed and weighed every other day for a period of 2 weeks. They were euthanized if they lost more than 20% of their body weight or if there were other signs of significant toxicity. […] This process was repeated until a tolerated dose was found, and the MTD value was determined.
To determine the MTD in vivo, the compounds listed above were injected intraperitoneally into BALB/c mice and morbidity and mortality were monitored over two weeks.

Data set [2] has as its system MDA-MB-231 (breast cancer). Briefly: MTT antiproliferative assay, MDA-MB-231. It counts as cell-based. The note with it: Homo sapiens, MDA-MB-231, 48 h, read-out: Antiproliferative Activity GI50, Breast MDA-MB-231. The method, then: (§1) Briefly, the tumor cells (1×10^4 cells/well) were seeded in 96-well microtiter plates and incubated for 24 h at 37° C. Following incubation, the media was replaced with fresh media containing the above compounds at concentrations ranging from 1 μM to 1 pM diluted in DMSO and incubated for an additional 48 h. Drugs were run in duplicate or triplicate and control cells received fresh media with DMSO concentration equivalent to the treatment groups. […] After aspirating the culture medium, 200 μL of DMSO was added to dissolve the precipitate and the resulting solution was measured for absorbance at 570 nm with a reference wavelength of 690 nm using a microplate reader (Infinite M200 Pro TECAN).
(Tetrazolium assays rely on reduction of a dye to a coloured formazan, in cell work by metabolically active cells.)

The subject of another data set is HCT-116 (colon cancer). Briefly: MTT antiproliferative assay, HCT-116. Type of data set: cell-based. The note with it: Homo sapiens, HCT-116, 48 h, read-out: Antiproliferative Activity GI50, Colon HCT-116. The method, then:
as §1

The next data set relates to SKOV-3 (ovarian). Briefly: MTT antiproliferative assay, SKOV-3. It counts as cell-based. Particulars: Homo sapiens, SK-OV-3, 48 h, read-out: Antiproliferative Activity GI50, Ovarian SKOV-3. The method, then:
as §1

The subject of another data set is DU-145 (prostate cancer). In words: MTT antiproliferative assay, DU-145. Type of data set: cell-based. Particulars: Homo sapiens, DU-145, 48 h, read-out: Antiproliferative Activity GI50, Prostate DU-145. The procedure: as §1
The subject of the next data set is HeLa (cervical cancer). In words: MTT antiproliferative assay, HeLa. Type of data set: cell-based. The note with it: Homo sapiens, 48 h, read-out: Antiproliferative Activity GI50, Cervical HeLa. The method, then:
as §1

A further data set deals with RFX393 (renal). In words: MTT antiproliferative assay, RFX393. Type of data set: cell-based. The note with it: 48 h, read-out: Antiproliferative Activity GI50, Renal RFX393. The procedure:
as §1

For data set [3] the following is noted: 10 mg/mL cpd in 20% DMSO/saline.
For a further data set, the system named is COLO-205 (colon cancer). Briefly: MTT antiproliferative assay, COLO-205. Type of data set: cell-based. Particulars: Homo sapiens, COLO 205, 48 h, read-out: Antiproliferative Activity GI50, Colon COLO-205. The procedure:
as §1

Data set [4] has as its system colon (HCT-116), cervical (HeLa), and renal (RFX393) tumor cell lines. Briefly: MTT antiproliferative assay, all three tumor cell lines. Type of data set: cell-based. The note with it: read-out: GI50 values against all three tumor cell lines. The procedure: as §1

By MTD is commonly meant the highest dose tested that stayed within the study's limit of toxicity. What is called GI50 is the concentration at which growth is held to half of that of the control. In the case of `O=C(CCCCCCC(=O)Nc1ccccc1)NO` [SAHA, suberoyl anilide hydroxamic acid, reference compound], the MTD at 2 weeks in [1] is more than 200 mg/kg. Also, the GI50 in data set [2] stood at 1.5 µM; with HCT-116 (colon cancer), 2.7 µM; in the data set on SKOV-3 (ovarian), 1.5 µM; in the data set on DU-145 (prostate cancer) it was 2 µM; in the data set on HeLa (cervical cancer), 2.8 µM; in the data set with RFX393 (renal) it was 2.5 µM. For the same compound, the GI50 with COLO-205 (colon cancer) is 0.5 µM; in data set [4] it was 2.5 to 3 µM. Further, the Solubility result in data set [3] is on record as “Not soluble”.
